Entries after “also recorded” stand apart in the source; their conditions may differ.
Legend:
LPS-induced chemokine KC = experiment: Induction of chemokine KC in plasma of mice injected with LPS; format: in vivo; conditions: phospholipid 200 μg/mouse i.p. with LPS 20 μg/mouse, blood after 2 and 4 hrs, FIG. 2
Procedure: Experiments were performed according to Austrian animal rights law using female C57BL/6J mice (Jackson Laboratories, Germany) of 20 g body weight. Mice were injected i.p. with 200 μl of either with saline, phospholipid (200 μg/mouse), LPS (Escherichia coli O55:B5, 20 μg/mouse) or a combination of LPS and the phospholipid. After 2 and 4 hrs blood was taken retroorbitaly and placed into Eppendorf tubes containing EDTA. After centrifugation of cells, plasma was collected and analyzed by ELISA for murine KC.

[1] = tested on: human pulmonary artery endothelial monolayers; experiment: Endothelial monolayer permeability, transendothelial electrical resistance (TER); format: cell-based; conditions: for endothelial barrier-protective effect compared with free iloprost (TER): 0.5 μM, post-treatment 15 min or 5 hrs after LPS 200 ng/ml, monitored over 20 hours, FIG. 4
Procedure: The cellular barrier properties were analyzed by measurements of transendothelial electrical resistance (TER) across confluent human pulmonary artery endothelial monolayers using an electrical cell-substrate impedance sensing system (Applied Biophysics, USA) as previously described (Birukova A A et al., Am. J. Physiol. Lung Cell. Mol. Physiol. 2006, 290(3):L540-548; Birukova A A et al. FASEB J. 2004, 18(15):1879-1890).

[2] = tested on: Human ECs (HUVECs and HUVECtert); experiment: Cell survival test, serum deprivation; format: cell-based; conditions: M199 without serum, 24 to 49 hrs, FIG. 6-8
Procedure: Human ECs (HUVECs and HUVECtert) were cultured Nunclon™ Delta surface flasks (Bartelt; Graz, Austria) in the medium M199 (Gibco) supplemented with 20% fetal calf serum (FCS, Gibco; Carlsbad, Calif., USA), penicillin-streptomycin-amphotericin B (PSF, Lonza; Basel, Switzerland), glutamine (Lonza) and ECGS-heparin (PromoCell; Heidelberg, Germany) in the 95% humidified atmosphere with 5% CO2 at 37° C. For stimulation of cells, they were seeded in the same medium in 96-well Nunclon™ Delta plates (Bartelt). On the day 2, the full medium was exchanged to M199 medium without serum but containing lipids (100 μl per well). In experiments on cell survival against hydrogen peroxide, camptothecin or doxorubicin, the full medium was exchanged to M199 containing 7% FCS and OxPAPC at 40 μg/ml or 50 μg/ml added as a two-fold concentrated solution (50 μl per well). After 20 to 30 min preincubation, toxic agents were added also as two-fold concentrated solutions in M199/7% FCS (50 μl per well). After 16 to 72 hrs of cell incubation at 37° C. and 5% CO2 in 95% humidity, either a nuclei counting of the remained cells or an XTT assay were performed. For the nuclei counting, the medium containing dead cells was aspirated and a Hoechst 33342 solution at the concentration of 1 μg/ml in PBS containing Ca^2+ and Mg^2+ (50 μl per well) was added. After at least 20 min incubation of cells at 37° C. in the cell culture incubator, the stained nuclei were counted using the EnSight plate reader (Perkin-Elmer; Waltham, Mass., USA). An XTT assay with the incubation time of 2 hrs was performed as described (Oskolkova, Godschachner and Bochkov, Inflammation 2017; 40(2): 530-536).
OxPLs protect endothelial cells (ECs) against serum deprivation. ECs were seeded in full M199 medium containing 20% serum. On the day 2, the medium was exchanged to M199 without serum and containing phospholipids at increasing concentrations. After 48 hrs, nuclei of remaining cells were stained by Hoechst and counted. Cells treated with 20% FCS serve as positive and with PBS as negative controls, respectively.
ECs were treated as described in Example 13. After 24 hrs, nuclei of remaining cells were stained by Hoechst 33342 and counted. Cells treated with OxPAPC and 20% FCS serve as positive and with PBS as negative controls, respectively.
ECs were treated with increasing concentrations of OxAA as described in Example 13. After 49 hrs, nuclei of remaining cells were stained by Hoechst 33342 and counted. Cells treated with 20% FCS or with 20 μM OxPAPC serve as positive and with PBS as negative controls, respectively.

LPS-induced lung injury = LPS-induced lung injury and vascular barrier dysfunction in mice (BAL, TNFα, optical imaging); format: in vivo; conditions: 10 μg/kg i.v. concurrently and 5 hrs after LPS i.t., day 1 and day 3, FIG. 5
Procedure: Eight-week old C57B1 mice were purchased from Jackson Laboratories (Bar Harbor, USA). Animals were handled according to the National Institutes of Health Guide for the Care and Use of Laboratory Animals. Bacterial lipopolysaccharide (LPS, 0.63 mg/kg body wt; Escherichia coli O55:B5) or sterile water was injected intratracheally in a small volume (20-30 μl) using a 20-gauge catheter (Exelint International, USA). Iloprost (10 μg/kg), ILO-PC (10 μg/kg) or sterile saline solution was administrated concurrently and 5 hrs after LPS instillation by intravenous injection in the external jugular vein. Animals were sacrificed at day-1 or day-3 by exsanguination under anesthesia. BAL was performed using 1 ml of sterile Hanks balanced salt buffer and measurements of cell count and protein concentration were conducted as previously described (Fu P et al., Eur. Respir. J. 2009, 33:612-624). […]
In vivo optical imaging: Mice were injected with 100 μl of 2 nmol Angiosense 680 EX (a vascular fluorescent blood pool imaging agent purchased from PerkinElmer, USA), intravenously via tail vein. Fluorescence optical imaging was performed in the Integrated Small Animal Imaging Research Resource (iSAIRR) at the University of Chicago using Xenogen IVIS 200 Spectrum (Caliper Life Sciences, USA). […]

CCCCCCCCCCCCCCCCOCC(COP(=O)(O)OCC[N+](C)(C)C)NC(=O)CCC/C=C\C[C@H]1C(=O)C[C@@H](O)[C@@H]1/C=C/[C@@H](O)CCCCC (stereo partly shown) [KFU-PGE2, 1-O-Hexadecyl-2-deoxy-2-(prostaglandin E2)amino-sn-glycero-3-phosphocholine]
induction of inflammatory chemokine KC in plasma (LPS-induced inflammation in vivo) (LPS-induced chemokine KC): inhibits induction of inflammatory chemokine KC | endothelial barrier protection/enhancement (TER) ([1]; cultured endothelial cells, two concentrations, FIG. 3): protects endothelial cell barrier | protection of ECs against serum deprivation (nuclei counting, Hoechst 33342) [2]: protective effects

CCCCCCCCCCCCCCCCOCC(COP(=O)(O)OCC[N+](C)(C)C)NC(=O)CCC/C=C\C[C@@H]1[C@@H](/C=C/[C@@H](O)CCCCC)[C@H](O)C[C@@H]1O (stereo partly drawn) [KFU-PGF2α, 1-O-Hexadecyl-2-deoxy-2-(prostaglandin F2α)amino-sn-glycero-3-phosphocholine]
protection of ECs against serum deprivation (nuclei counting, Hoechst 33342) [2]: protective effects

CCCCCCCCCCCCCCCCOCC(COP(=O)(O)OCC[N+](C)(C)C)NC(=O)CCC/C=C\C[C@@H]1C(=O)C=C[C@@H]1/C=C/[C@@H](O)CCCCC (stereo partly shown) [KFU-iPGA2, 1-O-Hexadecyl-2-deoxy-2-(8-iso-prostaglandin A2)amino-sn-glycero-3-phosphocholine]
protection of ECs against serum deprivation (nuclei counting, Hoechst 33342) ([2]; listed as iPGA2-NH-PC): protective effects; also recorded: protect ECs against serum deprivation

CC#CCC(C)[C@H](O)/C=C/[C@@H]1C2C/C(=C/CCCC(=O)NC(COCCCCCCCCCCCCCCCC)COP(=O)(O)OCC[N+](C)(C)C)CC2C[C@H]1O (stereo partly shown) [KFU-iloprost, 1-O-Hexadecyl-2-deoxy-2-(iloprost)amino-sn-glycero-3-phosphocholine]
endothelial barrier-protective effect compared with free iloprost (TER) [1]: stronger endothelial barrier-protective effect than free Iloprost | endothelial barrier-protective effect compared with free iloprost (TER) ([1]; listed as KFU-conjugated iloprost): stronger and more prolonged barrier-protective activity as compared to free iloprost | protection from LPS-induced lung injury, barrier dysfunction and edema compared with free iloprost (LPS-induced lung injury): better protection from edema in vivo as compared to free molecule | protection from LPS-induced lung injury, barrier dysfunction and edema compared with free iloprost (LPS-induced lung injury; listed as KFU-ILO): better protective response on LPS-induced lung injury and barrier dysfunction compared to a free molecule

CCCCC[C@H](O)/C=C/[C@H]1C=CC(=O)[C@H]1C/C=C\CCCC(=O)O [iPGA2, 8-iso-prostaglandin A2, reference compound]
protection of ECs against serum deprivation (nuclei counting, Hoechst 33342) [2]: not active; also recorded: not protective
